# According to publication PMC9241695, “Selective Metal Chelation by a Thiosemicarbazone Derivative Interferes with Mitochondrial Respiration and Ribosome Biogenesis in Candida albicans” (Microbiology Spectrum, 2022):
# Assays:
# C. albicans SC5314 cells = test: Intracellular labile zinc levels using Zinbo-5; assay type: cell-based, Candida albicans; conditions: 6 h
# Protocol: C. albicans SC5314 cells grown overnight were pelleted, washed three times with PBS buffer, and resuspended to obtain an OD600 of 2.0. Next, the cells were incubated with various concentrations of 19ak in 96-well plates at 30°C for 6 h, followed by incubation with 10 μM Zinbo-5 for 30 min. Finally, fluorescence was measured in a microplate reader (excitation at 355 nm, emission at 485 nm). Similar approach was used in detection of intracellular zinc levels of mammalian cells.
# C. albicans 28A = test: Microbroth dilution MIC80; assay type: cell-based; conditions: Candida albicans, 28A
# Method in brief: (§1)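 CLSI microbroth dilution in RPMI1640, inoculum 1 × 10^3 CFU/mL, compounds 0.0156–64 μg/mL final, 24 h at 35 °C. MIC read as visible growth inhibition versus control, in duplicate.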
# C. albicans 28I = test: Microbroth dilution MIC80; assay type: cell-based; conditions: Candida albicans, 28I
# Method in brief: as §1
# C. albicans YEM13 = test: Microbroth dilution MIC80; assay type: cell-based; conditions: Candida albicans
# Method in brief: as §1
# A. fumigatus 1161 = test: Microbroth dilution MIC80; assay type: cell-based; conditions: Aspergillus fumigatus, 1161
# Method in brief: as §1
# C. albicans CA1 = test: Microbroth dilution MIC80; assay type: cell-based; conditions: Candida albicans, CA1
# Method in brief: as §1
# C. albicans 11e = test: Microbroth dilution MIC80; assay type: cell-based; conditions: Candida albicans, 11E
# Method in brief: as §1
# C. albicans DSY654 = test: Microbroth dilution MIC80; assay type: cell-based; conditions: Candida albicans
# Method in brief: as §1
# C. neoformans 108 = test: Microbroth dilution MIC80; assay type: cell-based; conditions: Cryptococcus neoformans, 108
# Method in brief: as §1
smiles,measurement,setting,value
C/C(=N\NC(=S)N(C)C)c1ccccn1 [Compound 19ak],Labile zinc ions (Zinbo-5 fluorescence),C. albicans SC5314 cells; 0.125 μg/mL,decreased
same,Reduction of intracellular zinc ions,C. albicans SC5314 cells; 1 μg/mL,approximately 59.6%
same,MIC80,C. albicans 28A,0.125 mg/L
same,MIC80,C. albicans 28I,0.125 mg/L
same,MIC80,C. albicans YEM13,0.5 mg/L
same,MIC80,A. fumigatus 1161,0.5 mg/L
same,MIC80,C. albicans CA1,0.25 mg/L
same,MIC80,C. albicans 11e,1 mg/L
same,MIC80,C. albicans DSY654,0.125 mg/L
same,MIC80,C. neoformans 108,0.25 mg/L
